{"source": "patent US20050142080A1", "about": "“Cosmetic or dermatological light protection formulation with a benzoxazole derivative” (Beiersdorf AG, priority 2001, published 2005)", "data": [{"smiles": "CCCCCCCCCCC(CO)CCCCCCCC", "note": "(centres unmarked) [Octyldodecanol]", "values": [{"measurement": "σ [mN/m] at 25° C. (surface tension)", "value": 28.9, "unit": "mN/m"}]}, {"smiles": "CCCCCCC(CO)CCCC", "note": "(centres unmarked) [Butyl Octanol]", "values": [{"measurement": "σ [mN/m] at 25° C. (surface tension)", "value": 26.9, "unit": "mN/m"}]}]}
